Source: patent publication US10085955B2, “Methods and compositions for treatment of demyelinating diseases” (Pathologica LLC, priority 2013, dated 2018)
Entries after “also recorded” stand apart in the source; their conditions may differ.

Experiments:
[1] = Rhesus macaque single-dose pharmacokinetics; format: in vivo, rhesus monkeys; conditions: plasma, mean
Description: Two groups of three male rhesus monkeys were fasted overnight before being administered the test article, MGBG, as either a single bolus intravenous dose of 1 mg/kg (Group 1) or as a single oral gavage dose of 10 mg/kg (Group 2). Dose formulation analysis verified administered dose solutions as within 14% of targeted concentrations of 1 and 10 mg/kg for Groups 1 and 2, respectively.
Blood samples were collected into tubes containing lithium heparin from the femoral vein/artery (approximately 1.0 mL) for plasma MGBG concentration measurement from all intravenously dosed animals prior to dosing and at approximately T=0.083 (5 min), 0.25 (15 min), 0.5 (30 min), 1, 2, 4, 8, and 24 hours after dosing. Blood samples for plasma MGBG concentration measurement were collected from all orally dosed animals prior to dosing at approximately T=1, 2, 4, 8, 12, 24, and 36 hours after dosing. Food was also withheld through the first four hours of blood sample collection.
The samples were centrifuged under refrigerated conditions following completion of sample collection at each interval. The resulting plasma was separated and stored frozen at approximately −70° C. until analysis.
PK analysis was performed on the individual plasma concentration-time profiles for MGBG using the WinNonlin non-compartmental approach (linear trapezoidal rule for AUC calculations). Nominal dose values and sampling times were used for calculations. All MGBG plasma concentration measurements reported as BQL (<2.51 ng/mL) were set equal to zero for the purpose of analysis. Following IV and PO administration of MGBG, plasma PK disposition parameters were calculated using the WinNonlin default selection criteria for the selection of the Lambda Z.
Consequently, a model-dependent two-compartmental analysis was used to calculate bioavailability.

[2] = system: PGE2 production in carrageenan air pouch; test: Carrageenan air pouch model; format: in vivo, Lewis rats
Source text: Injection of air subcutaneously will induce the formation of a connective tissue cavity lined with cells that resemble and function like a synovial lining. This method is commonly known as the Air Pouch Model and is a useful animal model of inflammation that can be generated in a relatively short period of time. The air pouch may be created by subcutaneous (SQ) injection of a volume of sterile air in the dorsal neck region. The model may be used to test the efficacy and potency of compounds such as polyamine analogues and polyamine biosynthesis inhibitors such as MGBG in reducing various cellular and biochemical indicators of inflammation when administered as an oral (PO) gavage administration. Healthy Male Lewis rats (Charles River Laboratories, Wilmington, Mass.) weighing between 175-200 g were used. […] A correction factor of 1.49 was used to account for the dihydrochloride salt/monohydrate form of MGBG. […] Air pouches were formed on the dorsum of the rats during the last 4 days of MGBG or vehicle administration prior to carrageenan injection. Briefly, rats were anesthetized with isoflurane, during which dorsal hair was removed and 20 mL of sterile air was injected subcutaneously into the intrascapular region. Pouches were allowed to develop for the next 4 days, with re-inflation (to maintain pouch volume) of pouches 1 day prior to carrageenan injection. One hour prior to carrageenan injection, animals were given their last dose of drug (MGBG, vehicle, naproxen, or dexamethasone). A 1% suspension of carrageenan (2 mL; FMC BioPolyer, Philadelphia, Pa.) suspended in saline was injected into the pouch cavity. At either 3 hours or 24 hours post-carrageenan injection, rats were euthanized by CO2 asphyxiation and 2.5 mL of PBS (Sigma Chemical, St. Louis, Mo.) was injected directly into the pouch. The pouch was opened with surgical scissors and the pouch fluid was collected using a transfer pipette. One aliquot was collected for measurement of total cell count with differential, and the other aliquot for PGE2 determination. […]

CNS-infiltrating cells = test: Second MOG EAE protocol, flow cytometric analysis of CNS-infiltrating cells; format: in vivo, C57BL/6 mice; conditions: second study
Description: A second EAE experiment was run substantially as disclosed above, except that fingolimod was dosed at 1 mpk QD, and the pertussis toxin was administered at 165 ng/dose for both injections.
In addition to clinical scoring, flow cytometric analysis was performed on CNS-infiltrating cells from 6 mice in each of the vehicle-, fingolimod- and MGBG-treated groups, as well as in all three mice from the mock-immunized (disease-free) group.
On Day 28, the brain and spinal cord tissue (from 6 of 12 mice from each of the MOG-immunized groups; and from all 3 mice from the mock-immunized group) in the second MOG EAE study were […] infiltrating cells were isolated by Percoll gradient. After isolating infiltrating cells from each mouse separately, cells were placed in culture with phorbol myristate acetate (PMA, 50 ng/mL), ionomycin (0.5 μg/mL) and brefeldin (1 μg/mL) and incubated for 4-5 hours. The cells were then washed and stained for flow cytometric analysis, as specified below. The following analyses were performed (Becton Dickinson FACScan):
Anti-CD4-Cy-5/anti-IL-17A-PE/anti-IFNγ-FITC (Th1/Th17 cells)
Anti-CD4-Cy-5/anti-CD11c-PE/anti-CD45.2-FITC (infiltrating dendritic cells)
Anti-CD11b-Cy-5/anti-IL-12-PE/anti-CD45.2-FITC (M1 macrophages)
Anti-CD11b-Cy-5/anti-CD206-PE/anti-IL-10-FITC (M2 macrophages)
The number of cells positive for relevant stains and stain combinations was computed both as a percentage of the analyzed cells and as the average number of cells per mouse for each group.

[3] = oral gavage 10 mg/kg single dose
[4] = Day 28, raw numbers of cells, fingolimod 1 mg/kg QD, MGBG 30 mg/kg BID
[5] = Day 28, fingolimod 1 mg/kg QD, MGBG 30 mg/kg BID

CC(/C=N/NC(=N)N)=N\NC(=N)N [MGBG, 1,1′ [methylethanediylidene]dinitrilodiguanidine]
Clobs ([1]; IV 1 mg/kg single bolus): 13.7 mL/min/kg | VSSobs ([1]; IV 1 mg/kg single bolus): 13.2 L/kg | Clobs [1, 3]: 6.63 mL/min/kg | Vd [1, 3]: 13.2 L/kg | production of PGE2 (inflammatory and basal levels) ([2]; rat pouch fluid, 3 or 24 hours post-carrageenan, naproxen 10 mg/kg, dexamethasone 1 mg/kg): selectively inhibited peak inflammatory production of PGE2, without affecting basal levels | efficacy, changes relative to control indicative of reduced inflammation ([2]; rats, MGBG 1-60 mg/kg PO once daily 6 days): efficacious | CD4+ IFNy+ cells (CNS-infiltrating cells; [4]): 20.40 +/− 10^3 | CD4+ IL-17A+ cells (CNS-infiltrating cells; [4]): 23.55 +/− 10^3 | CD4+ cells (CNS-infiltrating cells; [4]): 152.11 +/− 10^3 | CD11b+ CD206+ cells (CNS-infiltrating cells; [4]): 1.92 +/− 10^3 | CD11b+ IL10+ cells (CNS-infiltrating cells; [4]): 3.37 +/− 10^3 | CD11b+ cells (CNS-infiltrating cells; [4]): 137.88 +/− 10^3 | CD45.2 high CD4− CD11c+ cells (CNS-infiltrating cells; [4]): 11.90 +/− 10^3 | CD45.2 high CD11b− IL12+ cells (CNS-infiltrating cells; [4]): 0.21 +/− 10^3 | IL12+ cells (CNS-infiltrating cells; [4]): 0.89 +/− 10^3 | # of IL12+ cells (10^3) (CNS-infiltrating cells; [5]): 0.89 +/− 10^3 | % CD4+ IFNγ+ cells (CNS-infiltrating cells; [5]): 15.85% | % CD11c+ of CD45.2 high CD4− cells (CNS-infiltrating cells; [5]): 7.21% | % CD206+ of CD11b+ cells (CNS-infiltrating cells; [5]): 1.39% | % IL10+ of CD11b+ cells (CNS-infiltrating cells; [5]): 2.37% | % IL12+ of CD45.2 high CD11b− cells (CNS-infiltrating cells; [5]): 0.06% | % IL-17A+ cells of CD4+ cells (CNS-infiltrating cells; [5]): 15.24% | % of CD4+ cells (CNS-infiltrating cells; [5]): 28.50% | % of CD11b+ cells (CNS-infiltrating cells; [5]): 27.86% | CNS CD11c+ dendritic cells (CNS-infiltrating cells; FIG. 8 A): reduces; also recorded: significantly reduced relative and absolute number | IL12+ dendritic cells / IL-12-producing cells (CNS-infiltrating cells; FIG. 8 B): reduces; also recorded: significantly reduced number | Th1 (CNS-infiltrating cells; FIG. 9 A): reduces | M1 macrophages (CNS-infiltrating cells; FIG. 9 B): reduces
